Values joined by “and” are separate entries in the source; they are usually repeats but may differ in a detail not shown here. Equal values may be shown once. Ends that are not written are not given here.
How the values were obtained:
[1] = Electronic tongue analysis (Taste-Sensing System SA 402B); parameters: unit not given here; details: reference solution 30 mM KCl + 0.3 mM tartaric acid as baseline, first measurement excluded; for Umami: sensor AAE; for Umami / Bitter / Sweet: detection threshold 0, room temperature; for Umami / Bitter / Sour / Salty: four replicates; for Sour: detection threshold -13, room temperature; for Salty: detection threshold -6, room temperature; for Sweet: measured five times
In short: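 Room-temperature electronic-tongue readings with five taste probes, calibrated against a reference of 30 mM KCl and 0.3 mM tartaric acid. Samples at 0.1 mg/mL and 1.0 mg/mL were measured four times, sweetness five times, and the first run was dropped. Detection cut-offs were sour −13, salty −6, others 0.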

[2] = tested on: human embryonic kidney cells (HEK293T)
Method: (§1) The cytotoxicity of 73 synthetic peptides was evaluated using four human cell lines: human pancreatic ductal epithelial cells (HPNE), human embryonic kidney cells (HEK293T), human umbilical vein endothelial cells (HUVEC), and human bronchial epithelial cells (BEAS-2B). When cell density reached 70% confluence, the complete culture medium was replaced with serum-free maintenance medium, and peptides were added at a final concentration of 100 μM for 36 h. Control groups received only serum-free maintenance medium without peptides. Cell proliferation was assessed using the CCK-8 assay kit (Solarbio, CA1210) according to the manufacturer’s instructions.

[3] = tested on: human bronchial epithelial cells (BEAS-2B)
Method: as §1

[4] = tested on: human pancreatic ductal epithelial cells (HPNE)
Method: as §1

[5] = tested on: human umbilical vein endothelial cells (HUVEC)

| Substance | Umami ([1]; peptide 1 mg/mL) | Bitter ([1]; sensor C00, peptide 1 mg/mL) | Sour ([1]; sensor CA0, peptide 0.1 mg/mL) | Sour ([1]; sensor CA0, peptide 1 mg/mL) | Salty ([1]; sensor CT0, peptide 1 mg/mL) | Sweet ([1]; sensor GL1, peptide 0.1 mg/mL) | Sweet ([1]; sensor GL1, peptide 1 mg/mL) | Average cell viability, HEK293T [2] | Cell viability, HEK293T, Data1 [2] | Cell viability, HEK293T, Data2 [2] | Cell viability, HEK293T, Data3 [2] | Average cell viability, BEAS-2B [3] | Cell viability, BEAS-2B, Data1 [3] | Cell viability, BEAS-2B, Data2 [3] | Cell viability, BEAS-2B, Data3 [3] | Average cell viability, HPNE [4] | Cell viability, HPNE, Data1 [4] | Cell viability, HPNE, Data2 [4] | Cell viability, HPNE, Data3 [4] | Average cell viability, HUVEC [5] | also measured |
| --- | --- | --- | --- | --- | --- | --- | --- | --- | --- | --- | --- | --- | --- | --- | --- | --- | --- | --- | --- | --- | --- |
| LQDVVE [TaPep24] | -3.57 | 3.73 | -4.17 | 9.09 | 4.83 | 6.22 | -4.08 | 99.02 | 102.40 | 97.85 | 96.81 | 113.59 | 103.99 | 117.45 | 119.34 | 93.71 | 94.37 | 92.98 | 93.78 | 103.54 | Cell viability, HUVEC, Data1 [5]: 91.48; Cell viability, HUVEC, Data2 [5]: 106.25; Cell viability, HUVEC, Data3 [5]: 112.88 |
| LQPDAGK [TaPep6] | -5.07 | 2.72 | -4.43 | 10.67 | 12.20 | 8.22 | -5.48 | 98.83 | 101.83 | 97.29 | 97.38 | 102.76 | 91.82 | 107.88 | 108.57 | 97.97 | 95.64 | 99.55 | 98.73 | 102.10 | Umami ([1]; peptide 0.1 mg/mL): 1.99; Bitter ([1]; sensor C00, peptide 0.1 mg/mL): 7.90; Salty ([1]; sensor CT0, peptide 0.1 mg/mL): -19.24; Cell viability, HUVEC, Data1 [5]: 91.96; Cell viability, HUVEC, Data2 [5]: 115.19; Cell viability, HUVEC, Data3 [5]: 99.15 |
| LQPSLEH [TaPep59] | -6.02 | 1.90 | -3.89 | 15.44 | 15.85 | 6.34 | -7.32 | 98.64 | 100.88 | 99.94 | 95.11 | 100.60 | 96.61 | 109.87 | 95.31 | 92.71 | 105.62 | 84.46 | 88.05 | 104.79 | Umami ([1]; peptide 0.1 mg/mL): 1.85; Bitter ([1]; sensor C00, peptide 0.1 mg/mL): 7.83; Salty ([1]; sensor CT0, peptide 0.1 mg/mL): -19.53; Cell viability, HUVEC, Data1 [5]: 97.39; Cell viability, HUVEC, Data2 [5]: 106.49; Cell viability, HUVEC, Data3 [5]: 110.48 |
| LWGPVT [TaPep72] | -4.42 | 3.83 | -4.62 | 11.06 | 7.83 | 7.58 | -5.31 | 100.76 | 102.49 | 95.02 | 104.76 | 100.50 | 118.74 | 92.32 | 90.43 | 101.26 | 115.31 | 97.84 | 90.65 | 99.47 | Umami ([1]; peptide 0.1 mg/mL): 2.15; Bitter ([1]; sensor C00, peptide 0.1 mg/mL): 7.25; Salty ([1]; sensor CT0, peptide 0.1 mg/mL): -19.66; Cell viability, HUVEC, Data1 [5]: 107.29; Cell viability, HUVEC, Data2 [5]: 101.62; Cell viability, HUVEC, Data3 [5]: 89.49 |
| NGDDEEG [TaPep7] | -5.11 | bitterness suppression and -0.45 | -2.86 | 11.92 | 9.19 | 6.98 | -6.18 | 95.11 | 96.15 | 94.73 | 94.45 | 102.56 | 94.72 | 111.17 | 101.79 | 99.30 | 92.35 | 93.04 | 112.51 | 105.24 | Umami ([1]; peptide 0.1 mg/mL): 1.28; Bitter ([1]; sensor C00, peptide 0.1 mg/mL): 7.41; Salty ([1]; sensor CT0, peptide 0.1 mg/mL): -21.22; Cell viability, HUVEC, Data1 [5]: 113.68; Cell viability, HUVEC, Data2 [5]: 110.16; Cell viability, HUVEC, Data3 [5]: 91.88 |
